Tests used:
[1] = biological target: T1, hFASN enzyme (full length) (Homo sapiens, UniProt P49327); assay: Fatty Acid Synthase (FASN) inhibition scintillation proximity assay; assay type: biochemical; details: for inhibition at 10 µM: read-out: Human FASN % inhibition @ 10 μM, 10 μM test compound; for IC50: read-out: Human FASN pIC50 (converted)
T1 construct: 10 μL hFASN enzyme (full length, 300 ng, purified in house); made in house
Outline: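 Scintillation proximity format: in-house full-length enzyme, 300 ng per well, pH 7.5 phosphate/DTT buffer, ³H-acetyl-CoA and malonyl-CoA. Emission counted on LEADseeker at 610 nm at least 24 h after stopping.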

A2780 ovarian cells [2] = assay: A2780 ovarian cell proliferation assay in lipid reduced medium, with palmitate (MTT); assay type: cell-based; details: Homo sapiens, A2780, 96 h; read-out: pIC50 A2780 Ovarian Cell, With Palmitate (converted)
Protocol: (§1) The biological assays described below correspond to comparative assays for ovarian cell proliferation. […] Compounds active in the absence of palmitate would not be expected to be active in the control.
(§2) 2500 cells were seeded in a 96-well clear well plate in 200 μL RPMI1640 with 10% Fetal Calf Serum (Hyclone), and incubated at 37° C., 5% CO2. Blanks were wells without cells. The next day the culture medium was aspirated and replaced by 160 μL culture medium with 10% Lipid-Reduced Serum (LRS, Hyclone). 20 μL test compound (at concentrations of 30 μM, 10 μM, 3 μM, 1 μM, 0.30 μM, 0.10 μM, 0.03 μM and 0.01 μM)/DMSO dilution followed by 20 μL palmitate-BSA solution were added to a final concentrations of 0.2% DMSO, 25 μM palmitate (Sigma, P0500, 10 mM stock solution in ethanol) 0.2% fatty-acid-free BSA, 0.25% ethanol. After 96 h incubation, an MTT assay was performed. The absorbance was measured at 544 nm on a SPECTRAMAX brand microplate reader (Molecular Devices).
A best fit curve was fitted by a minimum sum of squares method, plotting Controlmin versus test compound concentration.
(§3) Representative compounds of the present invention were tested according to the procedure as described in Biological Example 3 above, with results as listed in Table 8, below.

A2780 ovarian cells [3] = assay: A2780 ovarian cell proliferation assay in lipid reduced medium, without palmitate (MTT); assay type: cell-based; details: Homo sapiens, A2780, 96 h; read-out: pIC50 A2780 Ovarian Cell, Without Palmitate (converted)
Protocol: as §1
as §2, with “ethanol-BSA” for “palmitate-BSA”, “DMSO,” for “DMSO, 25 μM palmitate (Sigma, P0500, 10 mM stock solution in ethanol)”, “incubation” for “incubation,”
where mLC and mHC were the means of the low control wells and high control wells on the plate, after manual exclusion of outliers. A plot of Controlmin versus test compound concentration was fitted to a 4-parameter logistic curve using a non-linear least squares regression method.
as §3

T1 sequence (P49327 whole entry): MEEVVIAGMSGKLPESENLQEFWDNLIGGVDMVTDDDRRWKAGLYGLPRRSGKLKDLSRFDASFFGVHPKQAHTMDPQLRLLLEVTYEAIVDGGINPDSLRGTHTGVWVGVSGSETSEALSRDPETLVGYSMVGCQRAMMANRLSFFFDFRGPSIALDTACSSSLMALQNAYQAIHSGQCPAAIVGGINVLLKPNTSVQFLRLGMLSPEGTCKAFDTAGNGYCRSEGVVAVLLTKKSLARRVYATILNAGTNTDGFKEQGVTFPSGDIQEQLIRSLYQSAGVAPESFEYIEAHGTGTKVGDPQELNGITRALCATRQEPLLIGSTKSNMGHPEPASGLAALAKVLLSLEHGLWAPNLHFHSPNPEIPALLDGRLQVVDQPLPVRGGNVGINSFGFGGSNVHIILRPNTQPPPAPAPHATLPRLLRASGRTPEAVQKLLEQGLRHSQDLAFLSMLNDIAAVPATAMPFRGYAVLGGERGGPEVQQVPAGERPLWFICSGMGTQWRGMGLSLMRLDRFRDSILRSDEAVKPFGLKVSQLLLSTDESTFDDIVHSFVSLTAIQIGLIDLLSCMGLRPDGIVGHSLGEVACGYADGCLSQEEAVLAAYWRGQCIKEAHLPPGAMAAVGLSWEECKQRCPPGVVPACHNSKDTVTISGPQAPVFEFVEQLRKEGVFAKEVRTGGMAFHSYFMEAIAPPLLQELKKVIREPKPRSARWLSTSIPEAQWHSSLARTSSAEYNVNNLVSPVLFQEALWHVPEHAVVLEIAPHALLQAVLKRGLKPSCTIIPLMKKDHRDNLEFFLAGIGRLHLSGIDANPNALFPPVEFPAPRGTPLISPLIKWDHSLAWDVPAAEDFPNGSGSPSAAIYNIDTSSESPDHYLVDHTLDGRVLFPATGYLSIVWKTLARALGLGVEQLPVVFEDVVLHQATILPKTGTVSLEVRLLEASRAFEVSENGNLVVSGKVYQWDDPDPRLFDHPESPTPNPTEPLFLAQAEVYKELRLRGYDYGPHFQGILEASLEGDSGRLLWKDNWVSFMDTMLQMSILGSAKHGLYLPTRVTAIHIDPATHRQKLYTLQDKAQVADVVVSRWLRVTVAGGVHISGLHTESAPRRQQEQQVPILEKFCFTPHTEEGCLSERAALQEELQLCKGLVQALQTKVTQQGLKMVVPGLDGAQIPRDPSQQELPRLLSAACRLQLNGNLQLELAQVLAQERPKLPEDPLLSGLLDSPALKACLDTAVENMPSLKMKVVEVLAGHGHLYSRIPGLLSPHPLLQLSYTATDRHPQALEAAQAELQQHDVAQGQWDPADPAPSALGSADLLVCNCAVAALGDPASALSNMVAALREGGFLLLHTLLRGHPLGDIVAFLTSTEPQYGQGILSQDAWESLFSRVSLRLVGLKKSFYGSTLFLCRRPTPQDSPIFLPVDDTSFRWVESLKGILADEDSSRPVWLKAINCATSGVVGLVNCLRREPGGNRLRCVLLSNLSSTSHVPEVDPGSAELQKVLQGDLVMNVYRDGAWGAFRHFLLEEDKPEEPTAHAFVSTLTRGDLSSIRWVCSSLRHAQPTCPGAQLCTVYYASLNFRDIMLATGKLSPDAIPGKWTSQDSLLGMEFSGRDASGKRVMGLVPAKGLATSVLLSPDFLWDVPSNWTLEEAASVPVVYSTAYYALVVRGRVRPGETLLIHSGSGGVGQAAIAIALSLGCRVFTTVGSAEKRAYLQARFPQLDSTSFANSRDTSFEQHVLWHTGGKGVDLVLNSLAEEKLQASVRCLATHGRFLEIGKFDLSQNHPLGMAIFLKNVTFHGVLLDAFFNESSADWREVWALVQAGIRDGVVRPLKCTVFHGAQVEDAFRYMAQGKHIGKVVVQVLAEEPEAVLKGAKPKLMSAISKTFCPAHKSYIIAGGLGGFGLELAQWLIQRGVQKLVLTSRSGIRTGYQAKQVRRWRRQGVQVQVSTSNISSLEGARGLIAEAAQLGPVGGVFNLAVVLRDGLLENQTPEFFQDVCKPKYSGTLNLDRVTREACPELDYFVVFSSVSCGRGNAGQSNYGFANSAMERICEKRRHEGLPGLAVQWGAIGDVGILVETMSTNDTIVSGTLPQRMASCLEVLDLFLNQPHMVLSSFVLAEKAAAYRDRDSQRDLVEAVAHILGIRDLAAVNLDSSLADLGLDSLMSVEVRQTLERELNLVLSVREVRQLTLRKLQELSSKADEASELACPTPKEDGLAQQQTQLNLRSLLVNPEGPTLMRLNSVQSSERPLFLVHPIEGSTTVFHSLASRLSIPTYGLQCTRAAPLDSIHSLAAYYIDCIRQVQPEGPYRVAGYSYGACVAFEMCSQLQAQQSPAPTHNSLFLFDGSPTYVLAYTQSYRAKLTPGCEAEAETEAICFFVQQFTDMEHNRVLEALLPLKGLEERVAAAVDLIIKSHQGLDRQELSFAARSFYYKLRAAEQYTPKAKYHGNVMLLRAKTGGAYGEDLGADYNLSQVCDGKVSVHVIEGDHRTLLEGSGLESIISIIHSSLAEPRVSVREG

Compound	inhibition at 10 µM [1]	IC50 [1]	IC50 (A2780 ovarian cells [2])	IC50 (A2780 ovarian cells [3])
Cc1cc(-c2cc(C)c3ccc(Br)cc3n2)ccc1C1=NC2(CC2)C(=O)N1CC1CN(C(=O)C2(C)CC2)C1 [compound 605, 5-[4-(7-Bromo-4-methylquinolin-2-yl)-2-methylphenyl]-6-({1-[(1-methylcyclopropyl)carbonyl]azetidin-3-yl}methyl)-4,6-diazaspiro[2.4]hept-4-en-7-one]	62%	6.61 µM	6.31 µM	4.79 µM
CC(C)c1ccc(-c2ccc(C3=NC4(CC4)C(=O)N3CC3CN(C(=O)C4CC4)C3)cc2)cn1 [compound 784, 6-((1-(cyclopropanecarbonyl)azetidin-3-yl)methyl)-5-(4-(6-isopropylpyridin-3-yl)phenyl)-4,6-diazaspiro[2.4]hept-4-en-7-one]	14%	> 10 µM	> 10 µM	5.89 µM
Cc1ccc2c(-c3ccc(C4=NC5(CC5)C(=O)N4CC4CN(C(=O)C5CC5)C4)c(F)c3)cccc2n1 [compound 575, 6-{[1-(Cyclopropylcarbonyl)azetidin-3-yl]methyl}-5-[2-fluoro-4-(2-methylquinolin-5-yl)phenyl]-4,6-diazaspiro[2.4]hept-4-en-7-one]	52%	8.13 µM	> 10 µM	~7.94 µM
O=C(N1CC(CN2C(=O)C3(CC3)N=C2c2ccc(-c3ccc4c(cnn4CCO)c3)cc2F)C1)C1(O)CC1 [compound 837, 5-(2-fluoro-4-(1-(2-hydroxyethyl)-1H-indazol-5-yl)phenyl)-6-((1-(1-hydroxycyclopropanecarbonyl)azetidin-3-yl)methyl)-4,6-diazaspiro[2.4]hept-4-en-7-one]	–	–	> 3.02 µM	1.23 µM
Cc1cc(-c2ccc(-c3cnn(C4CCC4)c3)cc2)ccc1C1=NC2(CC2)C(=O)N1CC1CN(C(=O)C2CC2)C1 [compound 330, 5-(4′-(1-cyclobutyl-1H-pyrazol-4-yl)-3-methyl-[1,1′-biphenyl]-4-yl)-6-((1-(cyclopropanecarbonyl)azetidin-3-yl)methyl)4,6-diazaspiro[2.4]hept-4-en-7-one]	–	–	~6.17 µM	0.0324 µM
Cc1cc(-c2ccc3c(c2)c(C#N)nn3C)ccc1C1=NC2(CC2)C(=O)N1CC1CN(C(=O)C2CC2)C1 [compound 836, 5-(4-(6-((1-(cyclopropanecarbonyl)azetidin-3-yl)methyl)-7-oxo-4,6-diazaspiro[2.4]hept-4-en-5-yl)-3-methylphenyl)-1-methyl-1H-indazole-3-carbonitrile]	–	–	> 3.02 µM	0.372 µM
N#CCCn1cc2cc(-c3ccc(C4=NC5(CC5)C(=O)N4CC4CN(C(=O)C5CC5)C4)cc3)ccc2n1 [compound 842, 3-(5-(4-(6-((1-(cyclopropanecarbonyl)azetidin-3-yl)methyl)-7-oxo-4,6-diazaspiro[2.4]hept-4-en-5-yl)phenyl)-2H-indazol-2-yl)propanenitrile]	–	–	> 3.02 µM	> 3.02 µM
O=C(C1CC1)N1CC(CN2C(=O)C3(CC3)N=C2c2ccc(-c3ccc(-c4cnn(C5CCC5)c4)cc3)cc2F)C1 [compound 329, 5-(4′-(1-cyclobutyl-1H-pyrazol-4-yl)-3-fluoro-[1,1′-biphenyl]-4-yl)-6-((1-(cyclopropanecarbonyl)azetidin-3-yl)methyl)-4,6-diazaspiro[2.4]hept-4-en-7-one]	–	–	3.09 µM	0.0141 µM
CC(O)C(=O)N1CC[C@@H](CN2C(=O)C3(CCOC3)N=C2c2ccc(-c3ccc4c(cnn4C)c3)cc2)C1 (stereo partly drawn) [compound 691, 3-{[(3R)-1-(2-Hydroxypropanoyl)pyrrolidin-3-yl]methyl}-2-[4-(1-methyl-1H-indazol-5-yl)phenyl]-7-oxa-1,3-diazaspiro[4.4]non-1-en-4-one]	63%	~7.41 µM	–	–
Cn1ncc2cc(-c3ccc(C4=NC5(CCN(C(=O)C(F)(F)F)CC5)C(=O)N4CC4CN(C(=O)C5CC5)C4)cc3)ccc21 [compound 964, 3-((1-(cyclopropanecarbonyl)azetidin-3-yl)methyl)-2-(4-(1-methyl-1H-indazol-5-yl)phenyl)-8-(2,2,2,-trifluoroacetyl)-1,3,8-triazaspiro[4.5]dec-1-en-4-one]	41%	~11 µM	–	–
Cn1ncc2cc(-c3ccc(C4=NC5(CCOCC5)C(=O)N4CC4CN(C(=O)c5nccs5)C4)cc3)ccc21 [compound 908, 2-(4-(1-methyl-1H-indazol-5-yl)phenyl)-3-((1-(thiazole-2-carbonyl)azetidin-3-yl)methyl)-8-oxa-1,3-diazaspiro[4.5]dec-1-en-4-one]	2%	> 10 µM	–	–

Results, then the molecule that gave them:

inhibition at 10 µM [1]	IC50 [1]	IC50 (A2780 ovarian cells [2])	IC50 (A2780 ovarian cells [3])	Compound
92.9%	0.708 µM	> 10 µM	0.631 µM	O=C(C1CC1)N1CC[C@@H](CN2C(=O)C3(CC3)N=C2c2ccc(-c3ccc(O)cc3)cc2)C1 [compound 64, 6-{[(3R)-1-(Cyclopropylcarbonyl)pyrrolidin-3-yl]methyl}-5-(4′-hydroxybiphenyl-4-yl)-4,6-diazaspiro[2.4]hept-4-en-7-one]
–	–	> 10 µM	0.132 µM	Cn1ncc2cc(-c3ccc(C4=NC5(CC5)C(=O)N4C[C@@H]4CCN(C(=O)C5CC5)C4)cc3)ccc21 [compound 28, 6-{[(3R)-1-(Cyclopropylcarbonyl)pyrrolidin-3-yl]methyl}-5-[4-(1-methyl-1H-indazol-5-yl)phenyl]-4,6-diazaspiro[2.4]hept-4-en-7-one]
–	–	> 3.02 µM	> 3.02 µM	O=C(C1CC1)N1CC(CN2C(=O)C3(CC3)N=C2c2ccc(-c3ccc4ccc(=O)[nH]c4c3)cc2)C1 [compound 840]
–	–	> 6.17 µM	4.68 µM	Cn1ncc2cc(-c3ccc(C4=NC5(CC5)C(=O)N4CC4CCN(C(=O)C5CC5)CC4)cc3)ccc21 [compound 19, 6-{[1-(Cyclopropylcarbonyl)piperidin-4-yl]methyl}-5-[4-(1-methyl-1H-indazol-5-yl)phenyl]-4,6-diazaspiro[2.4]hept-4-en-7-one]
–	–	> 10 µM	0.479 µM	Cn1ncc2cc(-c3ccc(C4=NC5(CCCC5)C(=O)N4C[C@@H]4CCN(C(=O)C5CC5)C4)cc3)ccc21 [compound 35, 3-{[(3R)-1-(Cyclopropylcarbonyl)pyrrolidin-3-yl]methyl}-2-[4-(1-methyl-1H-indazol-5-yl)phenyl]-1,3-diazaspiro[4.4]non-1-en-4-one]
–	–	> 10 µM	0.0363 µM	O=C(C1CC1)N1CC[C@@H](CN2C(=O)C3(CC3)N=C2c2ccc(-c3ccc4scnc4c3)cc2)C1 [compound 71, 5-[4-(1,3-Benzothiazol-5-yl)phenyl]-6-{[(3R)-1-(cyclopropylcarbonyl)pyrrolidin-3-yl]methyl}-4,6-diazaspiro[2.4]hept-4-en-7-one]
–	–	> 10 µM	0.204 µM	O=C(C1CC1)N1CC[C@H](CN2C(=O)C3(CC3)N=C2c2ccc(-c3ccc4[nH]ncc4c3)cc2)C1 [compound 431, 6-{[(3S)-1-(Cyclopropylcarbonyl)pyrrolidin-3-yl]methyl}-5-[4-(1H-indazol-5-yl)phenyl]-4,6-diazaspiro[2.4]hept-4-en-7-one]
–	–	> 10 µM	0.00776 µM	O=C(C1CC1)N1CC[C@@H](CN2C(=O)C3(CC3)N=C2c2ccc(-c3ccc4cnccc4c3)cc2)C1 [compound 47, 6-{[(3R)-1-(Cyclopropylcarbonyl)pyrrolidin-3-yl]methyl}-5-(4-isoquinolin-6-ylphenyl)-4,6-diazaspiro[2.4]hept-4-en-7-one]
–	–	> 10 µM	0.339 µM	O=C(C1CC1)N1CC[C@@H](CN2C(=O)C3(CC3)N=C2c2ccc(-c3ccc4occc4c3)cc2)C1 [compound 58, (R)-5-(4-(Benzofuran-5-yl)phenyl)-6-((1-(cyclopropanecarbonyl)pyrrolidin-3-yl)methyl)-4,6-diazaspiro[2.4]hept-4-en-7-one]
–	–	> 10 µM	1.02 µM	O=C(C1CC1)N1CC[C@@H](CN2C(=O)C3(CC3)N=C2c2ccc(-c3cccc(Cl)c3)cc2)C1 [compound 112, 5-(3′-Chlorobiphenyl-4-yl)-6-{[(3R)-1-(cyclopropylcarbonyl)pyrrolidin-3-yl]methyl}-4,6-diazaspiro[2.4]hept-4-en-7-one]

— US10077261B2, “Imidazolin-5-one derivative useful as FASN inhibitors for the treatment of cancer” (Janssen Pharmaceutica NV, priority 2012, dated 2018)
